ChEMBL document CHEMBL1129601, “Inhibitors of acyl-CoA: cholesterol O-acyl transferase (ACAT) as hypocholesterolemic agents. CI-1011: an acyl sulfamate with unique cholesterol-lowering activity in animals fed noncholesterol-supplemented diets” (J Med Chem, 1996)
Where “and” joins values, the source holds several entries; their conditions need not be identical. Equal entries are not always repeated.

Tests used:
Rattus norvegicus [1] = assay: Effect on the Cholesterol fed rats for non-HDL-C in rats at the dose of 10 mg/kg by Chroinc screen test; assay type: functional
Rattus norvegicus [2] = assay: Effect on the plasma cholesterol level in rats at the dose of 3 mg/kg by Acute screen test; assay type: functional, organism-based; design: dose 3 mg/kg
Rattus norvegicus [3] = assay: Evaluated for %change in cholesterol fed rats at the dose of 0.3 mg/kg determined by Acute screen test; assay type: functional
Rattus norvegicus [4] = assay: Effect on the Cholesterol fed rats for HDL-C in rats at the dose of 0.01 mg/kg by Chroinc screen test; assay type: functional
Rattus norvegicus [5] = assay: Evaluated for %change in cholesterol fed rats at the dose of 10 mg/kg determined by Acute screen test; assay type: functional
Rattus norvegicus [6] = assay: Effect on the Cholesterol fed rats for non-HDL-C in rats at the dose of 0.01 mg/kg by Chroinc screen test; assay type: functional; note: unit not given here
Rattus norvegicus [7] = assay: Evaluated for %change in cholesterol fed rats for non-HDL-C at the dose of 10 mg/kg determined by Chronic screen test; assay type: functional
Rattus norvegicus [8] = assay: Effect on the Cholesterol fed rats for total cholesterol level in rats at the dose of 0.1 mg/kg by Chroinc screen test; assay type: functional; note: unit not given here
Rattus norvegicus [9] = assay: Evaluated for %change in cholesterol fed rats for HDL-C at the dose of 3 mg/kg determined by Chronic screen test; assay type: functional
Rattus norvegicus [10] = assay: Effect on the Cholesterol fed rats for total cholesterol level in rats at the dose of 0.01 mg/kg by Chroinc screen test; assay type: functional
Oryctolagus cuniculus [11] = assay: Effect on Rabbits (Fed a Cholesterol-Free Casein Diet ) for plasma cholesterol at the dose of 3 mg/kg (pretreatment); assay type: functional, organism-based; design: dose 3 mg/kg
Rattus norvegicus [12] = assay: Effect on the plasma cholesterol level in rats at the dose of 10 mg/kg by Acute screen test; assay type: functional, organism-based; design: dose 10 mg/kg
Rattus norvegicus [13] = assay: Effect on the Cholesterol fed rats for HDL-C in rats at the dose of 10 mg/kg by Chroinc screen test; assay type: functional
Oryctolagus cuniculus [14] = assay: Effect on Rabbits (Fed a Cholesterol-Free Casein Diet ) for plasma cholesterol at the dose of 3 mg/kg (post treatment); assay type: functional, organism-based; design: dose 3 mg/kg
Rattus norvegicus [15] = assay: Effect on the plasma Cholesterol level in rats at the dose of 0.3 mg/kg by Acute screen test; assay type: functional, organism-based; design: dose 0.3 mg/kg
Rattus norvegicus [16] = assay: Evaluated for %change in cholesterol fed rats for total cholesterol at the dose of 0.03 mg/kg determined by Chronic screen test; assay type: functional
Rattus norvegicus [17] = assay: Evaluated for %change in cholesterol fed rats for total cholesterol at the dose of 0.1 mg/kg determined by Chronic screen test; assay type: functional
Rattus norvegicus [18] = assay: Effect on the Normal, Chow fed rats for total cholesterol plasma level in rats at the dose of 10 mg/kg; assay type: functional, organism-based; design: dose 10 mg/kg
Rattus norvegicus [19] = assay: Evaluated for %change in cholesterol fed rats for total cholesterol at the dose of 10 mg/kg determined by Chronic screen test; assay type: functional
Rattus norvegicus [20] = assay: Effect on the Cholesterol fed rats for HDL-C in rats at the dose of 0.3 mg/kg by Chroinc screen test; assay type: functional; note: unit not given here
Rattus norvegicus [21] = assay: Evaluated for %change in cholesterol fed rats for total cholesterol at the dose of 0.001 mg/kg determined by Chronic screen test; assay type: functional
Rattus norvegicus [22] = assay: Effect on the Cholesterol fed rats for non-HDL-C in rats at the dose of 0.03 mg/kg by Chroinc screen test; assay type: functional; note: unit not given here
Rattus norvegicus [23] = assay: Effect on the Normal, Chow fed rats for Plasma total triglyceride level in rats at the dose of 3 mg/kg; assay type: functional, organism-based; design: dose 3 mg/kg
Rattus norvegicus [24] = assay: Evaluated for %change in cholesterol fed rats at the dose of 1 mg/kg determined by Acute screen test; assay type: functional
Rattus norvegicus [25] = assay: Effect on the Cholesterol fed rats for non-HDL-C in rats at the dose of 0.3 mg/kg by Chroinc screen test; assay type: functional; note: unit not given here
Rattus norvegicus [26] = assay: Evaluated for %change in Normal, Chow fed rats for total cholesterol plasma level in rats at the dose of 10 mg/kg; assay type: functional

With `CC(C)c1cc(C(C)C)c(CC(=O)NS(=O)(=O)Oc2c(C(C)C)cccc2C(C)C)c(C(C)C)c1` [AVASIMIBE] the Non-HDL-C (Rattus norvegicus [1]) was 33, the Plasma cholesterol (Rattus norvegicus [2]) was 66 mg/dL and the Change (Rattus norvegicus [3]) was -56%. For the same compound, the HDL-C (Rattus norvegicus [4]) was 15, the Change (Rattus norvegicus [5]) was -72% and the Non-HDL-C (Rattus norvegicus [6]) was 604. The Change (Rattus norvegicus [7]) was -84%, the TC (Rattus norvegicus [8]) was 131 and 323 and the Change (Rattus norvegicus [9]) was 140%. For the same compound, the TC (Rattus norvegicus [10]) was 619, the Plasma cholesterol (Oryctolagus cuniculus [11]) was 250 mg/dL and the Plasma cholesterol (Rattus norvegicus [12]) was 51 mg/dL. The HDL-C (Rattus norvegicus [13]) was 36, the Plasma cholesterol (Oryctolagus cuniculus [14]) was 171 mg/dL and the Plasma cholesterol (Rattus norvegicus [15]) was 81 mg/dL. For the same compound, the Change (Rattus norvegicus [16]) was -38%, the Change (Rattus norvegicus [17]) was -41% and -40% and the Plasma TC (Rattus norvegicus [18]) was 44 mg/dL. For the same compound, the Change (Rattus norvegicus [19]) was -69%, the HDL-C (Rattus norvegicus [20]) was 20 and the Change (Rattus norvegicus [21]) was 3%. It also gave a Non-HDL-C (Rattus norvegicus [22]) of 320, a Plasma TG (Rattus norvegicus [23]) of 95 mg/dL and a Change (Rattus norvegicus [24]) of -60%. The Non-HDL-C (Rattus norvegicus [25]) was 70 and the Change (Rattus norvegicus [26]) was -25%.
